Test results as given in paper PMC8773213, “In Vitro Anticancer Activity and Mechanism of Action of an Aziridinyl Galactopyranoside” (Biomedicines, 2021).
Like-named read-outs stand apart in the source and are kept apart here.

How the values were obtained:
[1] = test system: AA8 cells (NER proficient); assay: MTT cell viability assay, AA8 cells; format: cell-based, Chinese hamster; settings: then 48 h in drug-free medium, read-out: IC50 (mean ± SEM), AA8 cells
Description: (§1) Exponentially growing cells were seeded in 96-well plates and allowed to attach and grow for 24 h. The cells were then treated with increasing concentrations of the tested drugs. At the end of the treatment period, cell viability was measured with the MTT assay or the resazurin assay, two widely used techniques.
(§2) In the case of the MTT assay, this technique detects viable cells using the ability of these cells to reduce the yellow tetrazolium MTT to an insoluble colored formazan product. Subsequently, this product was solubilized and analyzed by spectrophotometry. Dead cells cannot reduce the MTT into the colored formazan product. Briefly, 24 h after plating, cells were treated with the tested compounds for 48 h; except in experiments with DNA repair-proficient and -deficient cell lines, in which cells were only exposed for 24 h to drugs and allowed to grow for an additional 48 h in drug-free medium to allow them to repair possible DNA damage induced by the tested drugs. […] Finally, plates were incubated overnight at 37 °C and optical densities were measured at 540 nm using an absorbance spectrophotometer microplate reader.
(§3) In both assays, cell viability was expressed as percentage compared to untreated cells. Results were expressed as the means ± standard error of the mean (SEM). […]

[2] = test system: UV5 cells (mutated in ERCC2 (XPD), NER deficient); assay: MTT cell viability assay, UV5 cells; format: cell-based, Chinese hamster; settings: Cricetulus griseus, 24 h exposure, then 48 h in drug-free medium, read-out: IC50 (means ± SEM), UV5 cells
Description: as §1, §2, §3

UV4 and AA8 cells = assay: Clonogenic survival assay; format: cell-based, Chinese hamster; settings: 10 µM, 24 h, then colonies in drug-free medium
Description: Cell survival after treatment was determined by clonogenic assay. AA8 and UV4 cells were seeded in 6 cm Petri dishes 4 h prior to treatment for 24 h. After that, drugs were removed and cells were allowed to form colonies for eight days. The colonies were then stained with 0.4% methylene blue in methanol for 15 min. Surviving colonies made up of more than 50 cells per colony were counted. Results were represented as percentage of survival referred to untreated cells.

A549 cells = assay: Glycolysis inhibition (glucose consumed, lactate produced); format: cell-based, human; settings: A549, 8 h
Description: Inhibition of glycolysis was determined by measuring glucose consumed (initial product of glycolysis) and lactate produced (final product of glycolysis) in untreated and treated cells. Cells were seeded in 6-well plates at a density of 10^6 cells/well and were allowed to attach for a few hours before treatment with the tested compounds for 8 h. After treatment, medium was recollected and glucose and lactate concentrations were determined using the Accutrend® Plus analyzer together with Accutrend glucose strips and BM-Lactate strips (Roche Diagnostics, Barcelona, Spain). After calibrating the instrument with glucose and lactate calibration strips, test strips were used to determine glucose and lactate levels through colorimetric oxidase mediator reactions according to the manufacturer’s instructions. The results are expressed as percentage of glucose consumption and percentage of lactate production in relation to untreated cells. Data were averaged from two independent experiments and shown as mean ± SEM.

MRC-5 lung normal cells = assay: MTT cytotoxicity of combinations, MRC-5; format: cell-based; settings: 48 h
Description: as §1, §2, §3

[3] = test system: VH10 (Human skin non-malignant cells); assay: Resazurin cell viability assay, VH10; format: cell-based; settings: 72 h, read-out: IC50 (Mean ± SEM, µM), VH10
Description: as §1
(§4) The resazurin assay is a redox-based colorimetric/fluorometric technique based on the ability of viable cells to reduce the blue compound resazurin into the pink, fluorescent and soluble product resorufin. The amount of resorufin produced is generally proportional to the number of living cells. In this assay, 24 h after seeding, cells were exposed to the tested drugs for 72 h. Then 100 μL resazurin in medium was added to each well (final concentration of 10 μg/mL) and, one hour later the fluorescence intensity was measured at 530/590 nm (excitation/emission) using a fluorescence microplate reader.
(§5) In both assays, cell viability was expressed as percentage compared to untreated cells. Results were expressed as the means ± standard error of the mean (SEM). All data are from at least three independent experiments.

[4] = test system: HeLa (Human cervical carcinoma cells); assay: Resazurin cell viability assay, HeLa; format: cell-based; settings: 72 h, read-out: IC50 (Mean ± SEM, µM), HeLa
Description: as §1, §4, §5

[5] = test system: NB4 (Human acute promyelocytic leukemia cells); assay: Resazurin cell viability assay, NB4; format: cell-based; settings: 72 h, read-out: IC50 (Mean ± SEM, µM), NB4
Description: as §1, §4, §5

[6] = test system: SW480 (Human colon adenocarcinoma cells); assay: Resazurin cell viability assay, SW480; format: cell-based; settings: 72 h, read-out: IC50 (Mean ± SEM, µM), SW480
Description: as §1, §4, §5

[7] = test system: U2OS (Human osteosarcoma cells); assay: Resazurin cell viability assay, U2OS; format: cell-based; settings: 72 h, read-out: IC50 (Mean ± SEM, µM), U2OS
Description: as §1, §4, §5

[8] = test system: BJ-RASV12 (HRASV12-transformed BJ-SV40T cells); assay: Resazurin cell viability assay, BJ-RASV12; format: cell-based, human; settings: 72 h
Description: as §1, §4, §5

[9] = test system: cancer cell lines versus MRC-5 and VH10 normal cell lines; assay: Resazurin assay, panel of cancer cells versus normal cells; format: cell-based, human
Description: as §1, §4, §5
Next, we evaluated the cytotoxic activity of AzGalp in cancer cell lines derived from solid tumors (HeLa, PC3, U2OS, HepG2 and SW480) and from hematological malignancies (NB4 and HL-60). To study the selectivity against cancer cells, MRC-5 and VH10 cells were used as normal cell lines; 5-FU was used as a positive control. All cells were treated with AzGalp or 5-FU for 72 h and cell viability was evaluated with the resazurin assay. This assay was used to determine cell viability instead of the MTT assay because the HL60 and NB4 cell lines grow in suspension. […] Leukemia cell lines were approximately 15 times more sensitive than normal cells to the cytotoxicity of our aziridine.

[10] = test system: A549 human lung cancer cell line and MRC-5 human lung normal cell line; design: method as in PMID 24177365; settings: MTT assay; cited from earlier work

Cc1ccc(S(=O)(=O)N2CC2(C)CO[C@@H]2O[C@@H]3CO[C@H](c4ccccc4)O[C@@H]3[C@H](OCc3ccccc3)[C@H]2OCc2ccccc2)cc1 (stereo partly drawn) [AzGalp, 2-methyl-2,3-[N-(4-methylbenzenesulfonyl)imino]propyl 2,3-di-O-benzyl-4,6-O-(S)-benzylidene-β-D-galactopyranoside]
IC50 ([1]; 24 h exposure): 319 ± 77.2 µM
IC50 ([1]; Cricetulus griseus, CHO-AA8, 24 h exposure): 397 ± 142 µM
IC50 [2]: 38.6 ± 6.3 µM
Cell survival, UV4 versus AA8 (clonogenic assay) (UV4 and AA8 cells): UV4 cells were more sensitive
Glycolytic activity (glucose consumption and lactate production) (A549 cells): did not affect the glycolytic activity
Cytotoxicity of combination with 5-FU, normal cells (MRC-5 lung normal cells; 100 μM AzGalp + 10 μM 5-FU): did not increase cytotoxicity against normal cells
Cytotoxicity of combination with oxaliplatin, normal cells (MRC-5 lung normal cells; 100 μM AzGalp + 10 μM oxaliplatin): did not increase cytotoxicity against normal cells
IC50 [3]: 411 ± 39.4 µM
IC50 [4]: 191 ± 35.8 µM
IC50 [5]: 21.4 ± 9.9 µM
IC50 [6]: 388 ± 30.9 µM
IC50 [7]: 120 ± 8 µM
Sensitivity of BJ-RASV12 malignant cells relative to BJ-hTERT non-malignant cells ([8]; resazurin): three times more sensitive
IC50 ([8]; Homo sapiens, resazurin assay, read-out: IC50 (Mean ± SEM, µM), BJ-RASV12): 76.3 ± 17.8 µM
Viability of leukemia cells ([9]; HL60 and NB4, concentrations between 10 and 100 µM, 72 h): 5%
Viability of normal cells ([9]; MRC-5 and VH10, concentrations between 10 and 100 µM, 72 h): did not alter the viability of normal cells
Sensitivity of leukemia cell lines relative to normal cells ([9]; NB4 and HL-60 versus MRC-5 and VH10, 72 h): approximately 15 times
Cytotoxicity against HepG2 and U2OS relative to normal cell lines ([9]; versus MRC-5 and VH10, 72 h): approximately 2.5 times
Cytotoxicity against A549 lung cancer cells relative to MRC-5 lung normal cells [10]: approximately six times more cytotoxic
